Test results as given in patent US7169290B1, “Biosensor for metal analysis and speciation” (Battelle Energy Alliance, LLC, priority 2002, dated 2007).

Legend:
Type in all cases: biochemical
[1] = target: T1, purified A. niger NR (E.C. 1.6.6.2) (Aspergillus niger, UniProt P36858); assay: Regeneration of metal inactivated NR activity by 10 mM EDTA; details: for NR activity after EDTA treatment, % of control: 100 μM metal five minutes, then 10 mM EDTA; for restoration of NR activity by EDTA after metal exposure / NR activity before EDTA treatment, % of control: 100 μM metal; for restoration of NR activity by EDTA after metal exposure: 10 mM EDTA; for NR activity before EDTA treatment, % of control: five minutes, 25° C., 10 mM KNO3
T1 construct: purchased Sigma-Aldrich Co. (St. Louis, Mo.)
T1 sequence (P36858 1-867): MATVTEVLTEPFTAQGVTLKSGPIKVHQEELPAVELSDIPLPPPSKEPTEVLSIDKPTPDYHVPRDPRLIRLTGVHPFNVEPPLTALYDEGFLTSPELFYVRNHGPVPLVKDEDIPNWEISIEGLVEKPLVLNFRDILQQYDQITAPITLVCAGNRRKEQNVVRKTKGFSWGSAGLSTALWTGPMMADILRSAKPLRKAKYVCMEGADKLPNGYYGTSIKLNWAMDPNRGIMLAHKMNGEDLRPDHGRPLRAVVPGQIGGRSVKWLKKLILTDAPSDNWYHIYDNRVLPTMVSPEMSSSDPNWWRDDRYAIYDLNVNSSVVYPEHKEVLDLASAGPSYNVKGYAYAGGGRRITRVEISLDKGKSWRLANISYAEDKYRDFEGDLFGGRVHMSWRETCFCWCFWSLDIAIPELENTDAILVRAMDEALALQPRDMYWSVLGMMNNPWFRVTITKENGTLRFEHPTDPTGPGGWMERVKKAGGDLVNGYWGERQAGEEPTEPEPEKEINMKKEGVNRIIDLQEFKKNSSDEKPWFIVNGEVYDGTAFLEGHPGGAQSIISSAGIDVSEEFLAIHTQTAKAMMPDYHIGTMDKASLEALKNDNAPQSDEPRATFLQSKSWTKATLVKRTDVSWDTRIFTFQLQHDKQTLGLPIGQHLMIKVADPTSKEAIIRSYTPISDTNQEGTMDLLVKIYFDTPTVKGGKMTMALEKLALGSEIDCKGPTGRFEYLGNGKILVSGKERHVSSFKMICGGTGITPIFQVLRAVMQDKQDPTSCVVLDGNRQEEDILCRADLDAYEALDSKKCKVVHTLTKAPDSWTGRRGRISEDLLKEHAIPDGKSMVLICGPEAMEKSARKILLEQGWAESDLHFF
Procedure: To determine whether inhibition caused by exposure to the metals could be reversed by the addition of EDTA, NR was exposed to 100 μM of the following metals: Cd^2+, Cr^3+, Cu^2+, Pb^2+ and Zn^2+ for five minutes in a 96-well plate and incubated at 25° C. with 10 mM KNO3. After five minutes, 10 mM EDTA was added and solutions were shaken for 10 seconds. NADPH was added to sets of positive controls, negative controls, and metal/NR and EDTA for evaluation of NR activity both immediately after EDTA addition and 30 minutes after EDTA addition. Enzyme activity was measured by determining the amount of nitrite produced and reported as a percent of a positive control.

[2] = target: T1, purified A. niger NR (E.C. 1.6.6.2); assay: Evaluation of buffer-metal interactions, NR activity by rate of NADPH disappearance; details: 5 μM metal; for NR sensitivity to metal in TRIS buffered system: 30 mM TRIS buffer pH 7.5; for NR sensitivity to metal in phosphate buffered system: 30 mM phosphate buffer pH 7.5
Procedure: To determine the buffer that would provide minimal metal-buffer complexation and, therefore, allow maximal metal inhibition to NR activity, an analysis of various pH buffers was performed. HEPES, MOPS, PIPES, phosphate, and TRIS buffers were individually evaluated in the presence of NR and 5 μM of each of the following metals: Cr^3+, Cr^6+, Cd^2+, Cu^2+, Pb^2+, and Zn^2+. An unbuffered assay system was used to establish a baseline of metal-induced enzyme inhibition. Reagents were added in the following order: the metal stock solution, the buffer solution, KNO3 solution, NR, and NADPH.
For these buffer experiments, NR and NADPH solutions were prepared in water rather than in the 30 mM MOPS, as was done for all other experiments. The final concentration of all reagents was 30 mM of each respective buffer, 5 μM metal, 50 μg ml^−1 NR, 10 mM KNO3 and 0.1 mM NADPH. NADPH addition initiated the reaction but NR activity was determined following the method described in Gilliam et al., Anal. Biochem., 212:359–365 (1993), which is based on the rate of NADPH disappearance. The presence of NADPH, which has a peak absorbance at 340 nm, was monitored with respect to time for 3 minutes using a Hewlett Packard 8452A UV-Vis spectrophotometer. NR activity was then reported as a ratio of the change in absorbance of a metal-containing sample to the change in absorbance of a positive (metal-free) control. The inherent instability of NADPH and the potential for oxidation in the presence of the metals used in these experiments was accounted for in negative controls, which contained all reagents but NR.
To select a buffering system that allowed for maximum inhibition of the enzyme by metal ions, several common buffers, HEPES, MOPS, PIPES, Phosphate and TRIS were tested in metal inhibition assays. The buffers used in the assay affected the sensitivity of NR to the metal ions examined due to some of the buffers' ability to chelate metal ions, as shown in FIG. 1. NR activity is reported as the percent of a metal free control. Values represent the averages of five replicate experiments. NR activity assays were also run in an unbuffered water system to establish a baseline level of metal sensitivity and to determine if the buffers were shielding NR from inhibition by any of the metals that were examined. An unbuffered assay system was not selected for further experiments because the pH was not uniformly maintained for the various conditions under which NR activity would be measured. […] Therefore, MOPS was chosen for use in subsequent metal inhibition assays over a wider range of metal concentrations. The phosphate and TRIS buffers appeared to selectively protect NR against different metals. […] The opposite was found when the assay was conducted in a TRIS buffered system where NR was insensitive to Cu^2+ ions and was inhibited by Cd^2+, Cr^6+, Pb^2+, and Zn^2+.

[3] = target: T1, purified A. niger NR (E.C. 1.6.6.2); assay: EDTA and NTA chelation experiments, NR activity by nitrite production; details: for effect of EDTA on the metal's ability to inhibit NR: EDTA 0.1 to 10 mM
Procedure: To determine the ability of chelating agents to prevent NR inhibition, EDTA or NTA was added to the enzymatic assay. For the experiments in which either EDTA or NTA was used, the reagents were added in the following order: the appropriate metal solution, EDTA or NTA, NR, nitrate, and finally NADPH. To allow sufficient time for the metal and chelating agent to react, the metal and either EDTA or NTA were added together prior to the addition of NR. Final assay metal ion concentrations ranged from 0.01 to 1000 μM. EDTA and NTA had final concentrations of 0.1 mM, 1 mM and 10 mM. Final concentrations of NR, KNO3 and NADPH were as described above. NR activity was assayed by monitoring the production of nitrite, as described above.

[4] = target: T1, purified A. niger NR (E.C. 1.6.6.2); assay: Metal inhibition of NR activity, colorimetric nitrite production (Griess reaction), MOPS buffer; details: for enzyme inhibition: 1 μM metal ion; for enzyme inhibition / span of concentrations over which NR activity is inhibited: MOPS buffer; for span of concentrations over which NR activity is inhibited: no chelating agent
Procedure: NR activity was measured using the Griess reaction in which nitrite is colorimetrically determined by diazotization and diazomium coupling reactions of nitrite with sulfanilamide and N-(1-naphthyl)ethylenediamine. Measurements were conducted in 96-well microtiter plates, allowing multiple reactions to be quantified simultaneously. The assay followed the method as described in R. Kneer et al., Phytochemistry, 31:2663–2667 (1992), with modifications including the adaptation for use in a 96-well plate format, the reduction of the assay time to 5 minutes, and the substitution of a 12.5 mM MOPS buffer instead of the 33 mM TRIS buffer used.
This was followed by the addition of 40 μl 0.2% (wt.) N-(1-naphthyl)ethylenediamine. The absorbance of the resulting pink solution read at 540 nm was recorded after ten minutes using a microplate reader (HTS7000 Plus Bioassay Reader, Perkin Elmer, Conn.).
Negative controls containing all reagents except NR were run and analyzed for nitrite. An activity of 100% indicated the rate of nitrate conversion in the absence of Cr(III). Positive controls, which comprised no metal but comprised all other reagents, were also run. Additional controls comprising nitrite, NR and NADPH were run to rule out the possibility that NR reduced the nitrite.
NR activity is reported as a percentage of the experimentally measured activity of the positive (metal-free) control or as a ratio of the change in absorbance of a metal-containing sample to the change in absorbance of a positive (metal-free) control. An activity of 100% indicated the rate of nitrate conversion in the absence of the metal. Data points represent the averages of seven replicate experiments and error bars represent the standard deviation of those averages, unless otherwise stated.
NR, NADPH, and KNO3 were used in the same concentrations as in the metal-free NR and buffer evaluation assays. For metal-inhibition studies in the absence of a chelating agent, the appropriate concentration of metal stock solution was added to the NR and KNO3 solution. The mixture was allowed to incubate at 25° C. for five minutes prior to the addition of NADPH to allow adequate time for the metal and NR to interact. A 12.5 mM MOPS buffer solution was used to maintain the pH at 7.5. Final metal concentrations in the assay solution ranged from 0.01 μM to 1000 μM. Enzyme activity was determined as described above by the calorimetric quantification of nitrite production and reported as a percentage of the nitrite produced in a metal-free control.
The sensitivity of NR to Cr(III) was determined at concentrations ranging from 1 to 10 μM. […] To further determine the extent to which NR was sensitive to metals in aqueous samples, the activity of purified NR was evaluated in the presence of Cd^2+, Cu^2+, Cr^3+, Cr^6+, Ni^2+, Pb^2+, and Zn^2+ ions at concentrations ranging from 0.01 to 1000 μM.

[5] = 12.5 mM MOPS pH 7.5, no chelating agent

Row | Structure (SMILES) | NR activity after EDTA treatment, % of control [1] | restoration of NR activity by EDTA after metal exposure [1] | NR activity before EDTA treatment, % of control [1] | NR sensitivity to metal in TRIS buffered system [2] | NR sensitivity to metal in phosphate buffered system [2] | effect of NTA on the inhibitory effects of the metal ([3]; 1 mM NTA) | increase of the concentration range over which the metal inhibited NR ([3]; 10 mM EDTA) | metal concentration up to which EDTA protected NR activity ([3]; 10 mM EDTA) | protection of NR by NTA from exposure to the metal ([3]; 10 mM NTA) | effect of EDTA on the metal's ability to inhibit NR ([3]; listed as Cr(VI)) | effect of EDTA on the metal's ability to inhibit NR ([3]; listed as Cr^6+) | NTA concentration up to which the metal's inhibitory effects on NR activity were not affected ([3]; NTA added to assay) | enzyme inhibition [4] | metal concentration at which NR activity was substantially inhibited [4, 5] | metal concentration at which NR activity was substantially inhibited ([4]; 12.5 mM MOPS pH 7.5, no chelating agent, listed as Cr^6+) | span of concentrations over which NR activity is inhibited [4] | metal concentrations over which NTA protected NR from metal induced inhibition ([3]; 10 mM NTA) | NR activity retained, percent of original activity (metal free control) ([4]; 1000 μM metal ion, 12.5 mM MOPS pH 7.5) | metal concentration at which NR activity was inhibited / adversely affected [4, 5]
1 | [Cd+2] [Cd^2+, cadmium] | 28% ± | partially restored | 2.7% ± | inhibited | relatively insensitive |  |  |  |  |  |  |  |  |  |  |  |  |  | 
2 | [Cr+3] [Cr^3+, chromium] | 4.3% ± 1.9% | unable to significantly restore | 5.7% ± 10% | inhibited | relatively insensitive | did not affect | two orders of magnitude | up to 100 μM | did not protect | unchanged | virtually unaffected | up to 10 mM | 62% | above 4 μM | 1 µM | several orders of magnitude |  |  | 
3 | [Cu+2] [Cu^2+, copper] | 5.1% ± 1.5% | unable to significantly restore | 1.0% ± 0.3% | insensitive | inhibited |  |  |  |  |  |  |  | 76% | 1 µM |  | several orders of magnitude | up to 100 μM |  | 
4 | [Ni+2] [Ni^2+, nickel] |  |  |  |  |  |  |  |  |  |  |  |  |  |  |  |  |  | ~20% | over 100 μM
5 | [Pb+2] [Pb^2+, lead] | 40% ± | partially restored | 1.3% ± | inhibited | relatively insensitive |  |  |  |  |  |  |  |  |  |  |  |  |  | 
6 | [Zn+2] [Zn^2+, zinc] | 54% ± | partially restored | 6.6% ± | inhibited | relatively insensitive |  |  |  |  |  |  |  |  |  |  |  |  |  | 
